For data set [1], the target named is T1, LasR (Pseudomonas aeruginosa, UniProt P25084).
T1 construct: expressed in transfected cells; host or cells: Escherichia coli DH5α (pJN105L+pSC11)
Nature of the data set: LasR agonism assay, P. aeruginosa PA01 MW1 (pUM15) YFP reporter strain. The class given is cell-based. Particulars: for Act %: thiolactone libraries, P. aeruginosa, synthetic ligands tested at 10 μM. As to the method: (§1) The black bars are DH5α (pJN105L+pSC11) and the grey bars are PA01 MW1 (pUM15). Agonism positive control=activity of the reporter strain at full turn on for the strain. […] Negative control (Neg)=bacteria in the absence of natural and synthetic ligand. Error bars=standard deviation of the mean of triplicate samples.
(§2) The initial library was tested for LasR agonistic and antagonistic activity in two strains: Escherichia coli DH5α (pJN105L+pSC11) [Lee, J. H.; Lequette, Y.; Greenberg, E. P., Activity of purified QscR, a Pseudomonas aeruginosa orphan quorum-sensing transcription factor. Mol. Microbiol. 2006, 59 (2), 602-609] and P. aeruginosa PA01 MW1 (pUM15) [Muh, U.; Schuster, M.; Heim, R.; Singh, A.; Olson, E.; Greenberg, E. P., Novel Pseudomonas aeruginosa Quorum-Sensing Inhibitors Identified in an Ultra-High-Throughput Screen. Antimicrob. Agents Chemother. 2006, 50, 3674-3679] (FIGS. 5A and 5B). Both strains allow for synthetic autoinducer mimic evaluation and contain a reporter gene that allows for a quantitative readout of QS activity. DH5α (pJN105L+pSC11) is a heterologous β-galactosidase E. coli reporter strain containing a plasmid for the P. aeruginosa LasR gene. The PA01 MW1 (pUM15) strain uses the natural P. aeruginosa background containing a LasI deletion and the gene for yellow fluorescent protein (YFP) under the control of the LasI promoter to evaluate the LasI/R activity. Since the PA01 MW1 (pUM15) strain evaluates LasR in the natural P. aeruginosa background, in contrast to the heterologous E. coli strain, an improved idea of the interplay between the isolated LasI/R system and the combination of LasI/R with other QS subsystems such as QscR can be determined. Furthermore, additional nuances of the natural system such as compound permeability are incorporated in assays using the PA01 MW1 (pUM15) strain.

Data set [2] can be described thus: Functional half-life of autoinducers: ligand pre-incubated in media, then PA01 MW1 (pUM15) agonism readout. Type of data set: cell-based, P. aeruginosa. Particulars: ligand incubated in media with antibiotics at 37° C.; pseudo first order, t1/2=ln(2)/slope. On the procedure: [Glansdorp, F. G.; Thomas, G. L.; Lee, J. K.; Dutton, J. M.; Salmond, G. P. C.; Welch, M.; Spring, D. R., Synthesis and stability of small molecule probes for Pseudomonas aeruginosa quorum sensing modulation. Org. Biomol. Chem. 2004, 2, 3329-3336.] […] In these cases the results were determined by NMR experiments conducted in deuterated buffers. […] Unfortunately, the use of high levels of DMSO reduces the biological relevance of the assay because large concentrations of DMSO cannot be tolerated by biological systems. Furthermore, the required concentrations of ligand are lower in a biologically based functional assay than in an NMR experiment because YFP production is much more sensitive than NMR, which requires relatively high concentrations.
In this assay, media, ligand, and antibiotics are prepared in Teflon-capped vials and allowed to incubate at 37° C. for predetermined times. P. aeruginosa cells from the strain PA01 MW1 (pUM15) were cultured overnight. These cells were then pelleted and washed with LB containing 50 mM MOPS. […] The 96 well plate was incubated for 8 hours and then analyzed for optical density and YFP fluorescence. […] Fluorescence was normalized to cell density and time points were analyzed as a percentage of the ability of the freshly prepared natural ligand to agonize the P. aeruginosa system. […]

In data set [3] the target is T1, LasR. Nature of the data set: LasR antagonism assay, E. coli DH5α (pJN105L+pSC11) β-galactosidase reporter strain. The class given is cell-based, P. aeruginosa. Particulars: for Antagonist, percent inhibition compared to a positive control: initial library (FIG. 4), negative values indicate agonist properties. On the procedure:
(§3) FIG. 5B is a bar graph showing the results of […] assay for initial heterocyclic and carbocyclic library (Scheme 1) shown as a percent of the positive control. Antagonism positive control (Pos)=activity of the reporter strain in the absence of synthetic ligand at the EC50 value for the strain. […] Negative control (Neg)=bacteria in the absence of natural and synthetic ligand. Error bars=standard deviation of the mean of triplicate samples.
as §2

The target in data set [4] is T2, TraR (Agrobacterium tumefaciens, UniProt P33905). The experiment in a line: cell-based. The class given is cell-based. Particulars: for Inhib %: thiolactone libraries, A. tumefaciens, synthetic ligands tested at 10 μM. Set-up: and Agrobacterium tumefaciens WCF (pCF372); endogenous in cells; host or cells: Agrobacterium tumefaciens WCF (pCF372). On the procedure: (§4) The initial library was also tested in Vibrio fischeri ESI 114 (Δ-LuxI) [Lupp, C.; Urbanowski, M.; Greenberg, E. P.; Ruby, E. G., The Vibrio fischeri quorum-sensing systems ain and lux sequentially induce luminescence gene expression and are important for persistence in the squid host. Mol. Microbiol. 2003, 50 (1), 319-331] and Agrobacterium tumefaciens WCF (pCF372). […] J. Bacteriol. 1998, 180 (20), 5398-5405.] […] [Geske, G. D.; O'Neill, J. C.; Miller, D. M.; Mattmann, M. E.; Blackwell, H. E., Modulation of Bacterial Quorum Sensing: Systematic Evaluation of N-Acylated Homoserine Lactones in Multiple Species and New Insights into Their Mechanism of Action. J. Am. Chem. Soc. 2007, 129, 13613-13625.]

For data set [5], the target named is T1, LasR. The experiment in a line: LasR agonism assay, E. coli DH5α (pJN105L+pSC11) β-galactosidase reporter strain. Particulars: for EC50: dose response; for Act %: thiolactone libraries, E. coli, synthetic ligands tested at 10 μM. Type of data set: cell-based, P. aeruginosa. As to the method: as §1, §2
Data set [6] has as its target T3, LuxR (Aliivibrio fischeri, UniProt P35327). Nature of the data set: cell-based. The class given is cell-based, Vibrio fischeri. Set-up: The initial library was also tested in Vibrio fischeri ESI 114 (Δ-LuxI); endogenous in cells; host or cells: Vibrio fischeri ESI 114 (Δ-LuxI). Particulars: for IC50: dose response; for IC50 / Antagonist, percent inhibition compared to a positive control: V. fischeri ESI 114 (Δ-LuxI); for Antagonist, percent inhibition compared to a positive control: initial library (FIG. 4); for Inhib %: thiolactone libraries, V. fischeri, synthetic ligands tested at 10 μM. On the procedure: as §4

In data set [7] the target is T1, LasR. Nature of the data set: LasR antagonism assay, P. aeruginosa PA01 MW1 (pUM15) YFP reporter strain. Type of data set: cell-based. Particulars: for LasR antagonism, in words: P. aeruginosa PA01 MW1 (pUM15), natural background; for Antagonist, percent inhibition compared to a positive control: initial library (FIG. 4), P. aeruginosa PA01 MW1, negative values indicate agonist properties. On the procedure: as §3, §2

The target in data set [8] is T3, LuxR. Particulars: V. fischeri ESI 114 (Δ-LuxI); for Agonist, percent of activation compared to the positive control: initial library (FIG. 4). On the procedure: as §4
The target of data set [9] is T1, LasR. The experiment in a line: LasR antagonism assay, E. coli DH5α (pJN105L+pSC11) β-galactosidase reporter strain. The class given is cell-based, P. aeruginosa. Particulars: thiolactone libraries, synthetic ligands tested at 10 μM.
The target in data set [10] is T2, TraR. Particulars: dose response; A. tumefaciens WCF (pCF372). On the procedure: as §4
The conditions of data set [11]: cited from earlier work.

Read-outs that look alike come from different tables or passages of the source.

T1 sequence (P25084 whole entry): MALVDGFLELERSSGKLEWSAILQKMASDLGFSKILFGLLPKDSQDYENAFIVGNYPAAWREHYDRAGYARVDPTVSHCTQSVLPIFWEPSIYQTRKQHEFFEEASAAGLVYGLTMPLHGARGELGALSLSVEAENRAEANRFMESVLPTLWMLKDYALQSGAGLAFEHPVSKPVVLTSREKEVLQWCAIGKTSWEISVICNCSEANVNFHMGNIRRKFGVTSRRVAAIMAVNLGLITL
T2 sequence (P33905 whole entry): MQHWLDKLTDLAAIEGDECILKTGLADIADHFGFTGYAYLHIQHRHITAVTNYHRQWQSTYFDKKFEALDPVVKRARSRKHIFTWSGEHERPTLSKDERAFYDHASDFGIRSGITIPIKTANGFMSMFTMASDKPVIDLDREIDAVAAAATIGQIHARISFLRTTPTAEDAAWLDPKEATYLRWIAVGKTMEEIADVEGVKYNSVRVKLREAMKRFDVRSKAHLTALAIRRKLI
T3 sequence (P35327 whole entry): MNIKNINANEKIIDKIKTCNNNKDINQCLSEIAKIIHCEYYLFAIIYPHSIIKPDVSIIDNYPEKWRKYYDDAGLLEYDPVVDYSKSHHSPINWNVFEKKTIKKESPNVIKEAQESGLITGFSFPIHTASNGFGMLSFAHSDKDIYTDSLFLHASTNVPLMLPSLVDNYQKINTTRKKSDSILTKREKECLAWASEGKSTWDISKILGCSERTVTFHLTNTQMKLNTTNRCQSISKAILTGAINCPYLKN

In general, EC50 refers to the concentration needed to bring the measured effect to its halfway point. A word on the half-life: it is the time needed for the level to fall by half in the phase considered. A word on the IC50: it is the concentration that inhibits the measured activity by half. With `CCCCCCCCCC(=O)CC(=O)N[C@H]1CCSC1=O` [Compound 1E], the 50% effective concentration (EC50) at LasR [1] (dose response, P. aeruginosa PA01 MW1 (pUM15)) was found to be 3.2 µM; on LasR [5] (E. coli DH5α (pJN105L+pSC11)) it was 0.092 µM. Also, the Act % on LasR [1] was determined as 127%; on LasR [5], 102%. In addition, the half-life in [2] was 82.3 h. The inhibition at 10 µM on LasR [3] (read-out: Inhib %) was -61%; at TraR [4] (read-out: Inhib %), 51%; at LuxR [6] (read-out: Inhib %) it was 91%. The IC50 on TraR [4] (dose response, A. tumefaciens WCF (pCF372)) is 1.8 µM; on LuxR [6], 0.45 µM. For the same molecule, the “LasR agonism, in words” value on LasR [5] (E. coli DH5α (pJN105L+pSC11)) is on record as “strong agonists”.
For `CCCCCCCCCC(=O)CC(=O)Nc1ccccc1` [Compound 2], at LasR [3] (E. coli DH5α (pJN105L+pSC11)), the “LasR antagonism, in words” value was “antagonism capabilities” and the “Antagonist, percent inhibition compared to a positive control” value (from here on “Antagonist, percent inhibition”) came to 53.7%. For the same molecule, at LasR [7], the “LasR antagonism, in words” value was “antagonism capabilities” and the “Antagonist, percent inhibition” value is given as 28.7%.
On to `CCCCCCCCCC(=O)CC(=O)NCc1ccccc1F` [Compound 7], for which, at LuxR [8], the “Agonist, percent of activation compared to the positive control” value (“Agonist, percent of activation” for short) is 3.1%. Further, the “Antagonist, percent inhibition” value at LasR [3] (E. coli DH5α (pJN105L+pSC11)) is 38.8%.
`CCCCCCCCCC(=O)CC(=O)NCc1ccco1` [Compound 10]: the “Agonist, percent of activation” value at LuxR [8] is 3.3%. Further, at LasR [7], the “Antagonist, percent inhibition” value was determined as 25.5%.
Take `CCCCCCCCCC(=O)CC(=O)NCc1cccc([N+](=O)[O-])c1` [Compound 13]: at LuxR [8], the “Agonist, percent of activation” value is on record as 1.7%. Further, the “Antagonist, percent inhibition” value stood at 41.0% at LasR [3] (E. coli DH5α (pJN105L+pSC11)), 43.8% at LuxR [6] and 16.8% on LasR [7].
Take `CCCCCCCCCC(=O)CC(=O)NCc1ccc(OC)cc1` [Compound 14]: the results for the “Antagonist, percent inhibition” value on LasR [3] (E. coli DH5α (pJN105L+pSC11)), at LuxR [6] and at LasR [7] were −67.7%, 14.6% and 37.8%, respectively. For the same molecule, the “LasR agonism, in words” value on LasR [5] (E. coli DH5α (pJN105L+pSC11)) is given as “strongly agonized”. Besides, the “Agonist, percent of activation” value at LasR [5] (initial library (FIG. 4), E. coli DH5α (pJN105L+pSC11)) was found to be 73.0%. Further, on LasR [7], the “LasR antagonism, in words” value was “slight antagonism”.
For the molecule `O=C(Cc1cccc([N+](=O)[O-])c1)N[C@H]1CCSC1=O` [Compound 19E], the values for the Act % at LasR [1] and on LasR [5] were 3% and 81%, respectively. In addition, the half-maximal effective concentration (EC50) is 11 µM at LuxR [8] (dose response) and 4.1 µM at LasR [5] (E. coli DH5α (pJN105L+pSC11)). Moreover, the Inhib % at TraR [4] was 30%; on LuxR [6], 30%; on LasR [9], −3%.
On to `CCCCCC(=O)CC(=O)N[C@H]1CCSC1=O` [Compound 24E], for which the Act % on LasR [1] is reported as 3%; at LasR [5], 0%. This molecule also came in with a half-maximal effective concentration (EC50) at TraR [10] of 20 µM. Also, the Inhib % on TraR [4] is −89%; on LuxR [6], 99%; on LasR [9], −30%. Moreover, inhibition on LuxR [6] was half-maximal at 0.35 µM (IC50).
As to `CCCCCCCCCC(=O)CC(=O)N[C@H]1CCOC1=O` [OdDHL, 3-oxo-dodecanoyal homoserine lactone], the half-life in [2] was 48.2 h; in data set [11] (previous literature, growth media at 37° C.), “approximately two”. Also, the hydrolysis half-life entry in [11] (previous experiments, NMR in deuterated buffers, 50% solution of DMSO) was “approximately two”. In data set [11] (previous experiments, over the course of a week), the “racemization of the chiral center” value is given as “less than 5%”.

The values are drawn from patent US9758472B2, “Non-lactone carbocyclic and heterocyclic antagonists and agonists of bacterial quorum sensing” (WISCONSIN ALUMNI RESEARCH FOUNDATION, priority 2009, dated 2017).
